According to patent US9745288B2, “Compounds and methods for treating cancer by inhibiting the urokinase receptor” (Indiana University Research and Technology Corporation, priority 2011, dated 2017):

Experiments:
[1] = biological target: T1, uPAR (Homo sapiens, UniProt Q03405); assay: Fluorescence polarization assay, displacement of AE147-FAM peptide from uPAR; format: binding; conditions: Table 1, assay not stated; for Ki: read-out: Ki
T1 construct: human uPAR (suPAR, amino acids 1-283) was expressed in stably transfected Drosophila S2 cells; made in house; host or cells: Drosophila S2 cells
T1 sequence (Q03405 23-305): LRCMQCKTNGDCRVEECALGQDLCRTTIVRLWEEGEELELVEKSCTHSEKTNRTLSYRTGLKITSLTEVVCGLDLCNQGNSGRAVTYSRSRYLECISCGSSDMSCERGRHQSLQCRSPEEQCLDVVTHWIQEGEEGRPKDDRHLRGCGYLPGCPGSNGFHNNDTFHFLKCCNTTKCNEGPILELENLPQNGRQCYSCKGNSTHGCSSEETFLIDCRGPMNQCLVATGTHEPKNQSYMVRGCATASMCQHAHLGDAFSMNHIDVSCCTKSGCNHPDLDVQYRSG
Description: Fluorescence Polarization Assay. The fluorescence polarization assay used fluorescent AE147-FAM peptide. uPAR was titrated against the fluorescent AE147-FAM peptide and data were fit to a sigmoidal dose-dependent curve as the FP value increases to determine the Kd of binding using Sigmaplot (Systat Software Inc., CA). Inhibitor screens were carried out in triplicates using 500 nM uPAR, 100 nM AE147-FAM, and inhibitor concentrations ranging from 0.78 μM to 100 μM in 50 μL volumes in black BD Falcon 384-well microplate. […] Polarized fluorescence intensities were measured immediately following addition of inhibitors to the protein-peptide mix at room temperature on an EnVision® Multilabel Plate Readers (PerkinElmer) with excitation and emission wavelengths of 485 nm and 530 nm, respectively.
Cloning, Expression and Purification of uPAR. uPAR was successfully cloned, expressed and purified. From 1 L of culture, nearly 12 mg of protein was expressed, which will be sufficient to conduct the experiments disclosed herein. Briefly, a truncated, soluble form of human uPAR (suPAR, amino acids 1-283) was expressed in stably transfected Drosophila S2 cells using the Drosophila Expression System (Invitrogen). suPAR was obtained by a two-step purification process. The conditioned culture medium was filtered (0.45 μm) and loaded onto a DEAE Sephadex column equilibrated with 20 mM Tris (pH 7.4). The protein was eluted with a gradient of 0-1 M NaCl in 20 mM Tris (pH 7.4). suPAR containing fractions were then pooled, concentrated, and filtered prior to RP-HPLC using a semi-preparative (10×25 cm) C8 column. A 1 mL aliquot of the concentrated protein was loaded onto the column at initial gradient conditions of 95% eluent A and 5% eluent B, where eluent A was 0.1% TFA/100% H2O and eluent B was 70:30 acetonitrile/[…]. The protein elutes using a gradient of 5% eluent A to 95% eluent B over 46 minutes at a flow rate of 4 mL/min. Under these conditions, the protein eluted as a single sharp peak (tR=29 min). […] Surface plasmon resonance confirmed that the purified uPAR was capable of binding to uPA. The identity of the 60 kDa band was established by immunoblot (not shown).
The design of a fluorescent probe was guided by the three-dimensional structure of uPAR in complex with peptide AE147.^27 As this peptide binds at the same site that is occupied by the growth factor-like domain of uPA, it provides the basis for the development of a competition assay to assess binding to this site. Flurescein was introduced to the N-terminus of AE147.
All 210 compounds were screened at initial concentration of 50 μM for displacement of AE147-FAM peptide. Eleven compounds gave polarization readings that were five times that of the standard deviation of the control peptide (FIG. 1B). Secondary concentration-dependent study for these eleven compounds was performed.
The resulting inhibition curves were used to determine an inhibition constant, Ki, for each.

[2] = system: MDA-MB-231 cells; assay: MTT proliferation assay; format: cell-based, human; conditions: MDA-MB-231
Description: (§1) Proliferation Assay. The procedure consisted of culturing cells at 37° C. in 10% FBS-DMEM medium containing various amounts of compound. 5 mM compound stock in 100% DMSO was 1:50 diluted in medium, filtered, and serially diluted in 96-well plate. Then seeded cells were incubated for 3 days. Viable cells were quantified by MTT assay at absorbance of 570 and 630 nm.
FIGS. 4A-4D show inhibition of MDA-MB-231 proliferation and mechanism of cell killing. To gain insight into the mechanism by which these compounds are inhibiting growth, a flow cytometry analysis with annexin V-FITC and PI staining was performed. The level of apoptotic cells in MDA-MB-231 was assessed by the percentage of Annexin V-positive/PI-negative cells present after exposure of MDAMB-231 cells to increasing concentration of IPR-69 for 24 h (FIG. 4B). At a concentration of 50 μM, IPR-69 induced significant apoptosis as evidenced by a 51% and 21% increase in apoptotic cells (Annexin V positive/PI-negative) and necrotic cells (Annexin V-positive/PI-positive), respectively. […] At a concentration of 50 μM, 26% of cells were necrotic (Annexin V positive/PI-positive), a 22% increase over control. 46% of cells were apoptotic (Annexin V positive/PInegative), compared with 4% of control.

[3] = system: PANC-1 cells; assay: MTT assay; format: cell-based, human
Description: as §1
Some of the compounds of the presently disclosed subject matter were tested in a MTT assay using a human pancreas carcinoma cell line PANC-1 (FIG. 12A). […] One of these compounds, IPR-737, was further tested in a MTT assay using MDA-MB-231, AsPC-1 (human pancreas adenocarcinoma cell line), and PANC-1 cells.

[4] = system: MDA-MB-231 cells; assay: Invasion assay (Boyden chamber, Matrigel); format: cell-based, human
Description: Invasion and Migration Assays. These assays were performed using BD BioCoat Matrigel Invasion Chamber (Cat. 354480, BD Biosciences, Bedford, Mass.). The undersurface of the inserts was coated with 30 μg/mL of fibronectin (Sigma, F2006) in PBS at 4° C. overnight. The inserts were washed with PBS once. Then, 0.5 mL of serum-free medium was separately added to the upper and lower chambers to equilibrate the Matrigel invasion chambers at 37° C., 5% CO2 for 2 hours. After starvated with serumfree DMEM or 4 hours, subconfluent MDA-MB-231 cells were trypsinized and resuspended in 0.1% FBS DMEM. 5×10^4 cells in 500 μL of 0.1% FBS DMEM containing various compounds or 1.0% DMSO (as control) were added to the upper chambers. 500 μL of 10% FBS DMEM containing the same concentration of the same compound or DMSO were added to the lower chambers. We incubated the invasion chambers for 3 hours at 37° C., 5% CO2. Non-invaded cells were removed from the upper chamber with a cotton swab. The invaded cells were fixed with 100% methanol and then stained with Hematoxylin Stain Harris Modified Method (Fisher, SH30-500D). The filters were washed with water 3 times. Filters were air dried and the invaded cells were counted in ten randomly selected microscopic fields (×200 magnification). The experiment was performed in triplicate per group and shown by mean±SE.
Whether the two active compounds affected invasion, adhesion and migration in cell culture in a concentration-dependent study was tested (FIGS. 2A, 2B). For invasion, the Transwell (or Boyden) chamber assay was used.^28 The assay uses a chamber with two compartments that are separated by a microporous membrane known as Matrigel consisting of components of the ECM such as collagen, laminin and fibronectin.^28
Invasive tumor cells degrade the Matrigel and migrate through the membrane to the lower compartment. […] FIGS. 2A and 2B show the effect of representative presently disclosed compounds on MDA-MB-231 metastasis. Percent inhibition of invasion, migration, and adhesion of MDA-MB-231 by compounds that bind to uPAR.

[5] = system: MDA-MB-231 cells; assay: Adhesion assay on fibronectin-coated wells; format: cell-based, human; conditions: MDA-MB-231
Description: Adhesion Assay. Quantitative cell adhesion assays were carried out in nontissue culture treated 96-well microtiter plates (Evergreen Scientific, Los Angeles, Calif.) which were coated with 15 μg/mL fibronectin (Sigma) for 1 h at room temperature. Fibronectin coated and uncoated control wells were blocked for 1 h with 3% heat denatured bovine serum albumin (BSA) at 37° C. Cells were split one day prior to the experiment to achieve a subconfluent culture. […] The wells were washed and the number of adherent cells was quantified by crystal violet staining at 570 nm.^19,20 The results were shown by means±SE.

[6] = system: PANC-1 cells; assay: PANC-1 invasion assay; format: cell-based, human
[7] = system: MMP-9; assay: Gelatin zymography of MDA-MB-231 conditioned medium; format: cell-based, human
Description: Gelatin Zymography. MDA-MB-231 cells were treated with different concentrations of uPAR compounds in serum free medium for 24 h, the conditioned medium were collected, concentrated by Amicon Ultra centrifugal filter units (Millipore, #UFC500324), proteins were normalized and electrophoresed on sodium dodecyl sulfate (SDS)-polyacrylamide gels (10%) containing 1 mg/mL gelatin. After electrophoresis, the gel was washed twice in 50 mM Tris-HCl (pH 7.6) containing 5 mM CaCl2 and 2.5% Triton X-100 for 30 minutes at room temperature and incubated in buffer that contained 50 mM Tris-HCl (pH 7.6), 200 mM NaCl, 10 mM CaCl2 at 37° C. for 36 h. Then, the gels were stained with 0.05% Coomassie brilliant blue (CBB) and destained with 30% methanol in 10% acetic acid. Areas of gelatinolytic degradation appeared as transparent bands on the blue stained background of the gel. Data were quantified using Image J.
To degrade collagen within the ECM, malignant cells unleash a series of extracelullar proteases known as matrix metalloproteinases (MMPs).

[8] = system: different signaling molecules; assay: Western blot analysis of signaling; format: cell-based; conditions: n=1
Description: In light of the previously reported role of uPAR in signaling, the effect of IPR-993, IPR-737, IPR-81 and IPR-69 on signaling was studied by Western blot analysis (FIG. 23). A concentration-dependent study was carried out for IPR-737.

[9] = biological target: CYP2C9 (Homo sapiens, UniProt P11712); assay: Fluorescence-based CYP2C9 inhibition assay; conditions: 5 μM
CYP2C9, sequence (P11712 whole entry): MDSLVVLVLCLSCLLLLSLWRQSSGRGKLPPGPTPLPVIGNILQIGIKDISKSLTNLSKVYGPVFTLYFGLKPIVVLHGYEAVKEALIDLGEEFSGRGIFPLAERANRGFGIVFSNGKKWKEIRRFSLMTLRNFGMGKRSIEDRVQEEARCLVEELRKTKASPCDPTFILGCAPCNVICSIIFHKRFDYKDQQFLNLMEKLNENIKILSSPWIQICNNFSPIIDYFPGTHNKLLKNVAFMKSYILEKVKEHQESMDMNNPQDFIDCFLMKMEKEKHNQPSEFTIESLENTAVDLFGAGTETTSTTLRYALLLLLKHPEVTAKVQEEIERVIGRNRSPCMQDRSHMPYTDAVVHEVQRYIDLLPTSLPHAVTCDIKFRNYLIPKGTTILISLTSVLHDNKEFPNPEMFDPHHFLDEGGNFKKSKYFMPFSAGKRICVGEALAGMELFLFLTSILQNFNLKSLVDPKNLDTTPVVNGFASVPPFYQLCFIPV
Description: CYP metabolism was measured using a fluorescence-based assay designed by Cohen et al.,^41 recently implemented by Invitrogen (Carlsbad, Calif.).

## c1ccc(CNCCC(Cc2ccccc2)c2ccc3c(c2)OCO3)cc1 (stereo not drawn) [IPR-021]
[1]
  IC50: 58.7 µM
  Ki: 17.9 µM

## COc1ccccc1C(CCNCc1ccccc1)c1ccc2c(c1)OCO2 (stereo not drawn) [IPR-022]
[1]
  IC50: 24.2 µM
  Ki: 7.3 µM

## COc1ccc(N2C(=O)CCC(C(=O)Nc3ccc(OC)c(Cl)c3)C2c2ccc(OC)c(OC)c2)cc1 (stereo not drawn) [IPR-108]
[1]
  IC50: 42 µM
  Ki: 12.8 µM

## CCCCCCOc1cccc(N2C(=O)C(O)=C(C(=O)c3ccccc3)C2c2ccc(CC)cc2)c1 (stereo not drawn) [IPR-993]
[2]
  cell proliferation / viability (MTT, words): inhibited cell viability
[3]
  cell proliferation / viability (MTT, words): inhibited cell viability
[4]
  cell invasion: inhibition of activity with increasing concentrations of compound
[5]
  cell adhesion: some activity
[6]
  cell viability in the PANC-1 invasion assay: little decrease in cell viability
[6]; increasing concentrations
  PANC-1 invasion: inhibition of activity with increasing concentrations of compound
[7]
  MMP-9 activity in gelatin zymography: did not appear to demonstrate impairment of MMP-9 activity
[8]
  effect on signaling molecules: did not seem to be much of an effect

## Nc1ccc(S(=O)(=O)Nc2ccnn2-c2ccccc2)cc1 [sulphaphenazole, reference compound]
[9]
  inhibition of CYP2C9: approximately 69%
